Like-named read-outs stand apart in the source and are kept apart here.
Key:
[1] = system: SKOV3 ovarian cancer cells; test: Phototoxicity in SKOV3 cells after 660 nm light activation (AlamarBlue viability); assay type: cell-based, Human; settings: 24 h uptake, 660 nm laser or LED 50 mW/cm^2 for 5 mins (15 J/cm^2), viability 24 h after activation
Protocol: Samples were stored at 4° C. protected from light.
All data are shown as mean±SD (where appropriate).
To test for phototoxicity, cells incubated with pyropheophorbide a analogues (0-20 μM in DMSO) had culture media replaced after 24 hours (as above) and were then exposed to a 660 nm laser (Invion) or light-emitting diode (LED) panel (Invion) with optical power density at 50 mW/cm^2 for 5 mins (total 15 J/cm^2). Laser and LED exposure induce an equivalent response in relation to phototoxicity. Following activation, cells were cultured for a further 24 hours. Media was then replaced with fresh media containing AlamarBlue, and % viable cells remaining assessed as above. Controls included cells treated with pyropheophorbide a analogues but not activated by laser light; cells without pyropheophorbide a analogue treatment but with laser light; and untreated controls. All measurements were made in quadruplicate.
To evaluate the therapeutic potential of pyropheophorbide a analogues, the therapeutic index (TI) was calculated. TI provides a quantitative measurement to describe relative drug safety, by comparing the drug concentration required for desirable effects versus the concentration resulting in undesirable off-target toxicity. TI was calculated using phototoxicity IC90 vs dark toxicity IC10.

[2] = system: SKOV3 ovarian cancer cells
Protocol: (§1) Photosensitizers (e.g. pyropheophorbide a analogue, chlorin e4 disodium (provided by Advanced Molecular Technologies, Scoresby) or Talaporfin sodium (purchased from Focus Bioscience cat #HY-16477-5MG)) were resuspended in 100% dimethylsulfoxide (DMSO) at a concentration of 5.5 mM. Samples were stored at 4° C. protected from light.
(§2) For in vitro experiments, photosensitizers (stock solution 5.5 mM in 100% DMSO) were diluted 1:100 in concentrated excipient solution (final 55 M photosensitizer in 10% w/v Kollidon-12, 42.4% w/v polysorbate 80, 0.6% w/v citric acid anhydrous, 40% w/v ethanol, 1.0% DMSO). Serial dilutions were prepared in cell culture media (Dulbecco's Modified Eagle Medium/Nutrient Mixture F-12 (DMEM/F-12)) supplemented with 10% v/v Fetal Bovine Serum, 100 U/mL penicillin, 100 μg/mL streptomycin and the same excipient solution at a constant 1:55 dilution.
(§3) Human ovarian cancer cell line SKOV3 (ATCC #HTB-77) was maintained in Dulbecco's Modified Eagle Medium/Nutrient Mixture F-12 (DMEM/F-12), supplemented with 10% v/v Fetal Bovine Serum, 100 U/mL penicillin and 100 μg/mL streptomycin. Monolayer cultures were grown in a humidified incubator at 37° C. with 5% CO2. Once cells had reached ~80% confluence, spent media was replaced with media containing photosensitizer at the required concentration and cells were incubated for the desired period of time to allow photosensitizer uptake.
(§4) Spectral absorbance and viability measurements were normalized in the range 0-100%, with a minimum of 0 and a maximum value determined from the dataset. Dose response was determined using a sigmoidal four-point non-linear regression with variable slope, and IC10 or IC90 calculated for each compound.
(§5) SKOV3 cells were seeded in 96-well black wall plates (Greiner #655090) at a cell density of 5000 cells in 100 μl culture medium per well. On reaching ~60% confluence, media was aspirated and replaced with fresh media containing the relevant pyropheophorbide a analogue from 0-100 μM in DMSO. Cells were incubated for a further 24 hours, allowing uptake of pyropheophorbide a analogues.
(§6) To test for inherent cytotoxicity (i.e. “dark toxicity”) of the pyropheophorbide a analogues, the culture media was replaced after 24 hours with fresh media containing 10% (v/v) AlamarBlue Cell Viability Reagent (ThermoFisher) and cells incubated at 37° C. for 6 hours. Untreated cells were used as a control. Fluorescence (Ex 555 nm/Em 596 nm) was measured using a Cytation 3 Cell Imaging Multi-Mode Reader (Biotek) or a CLARIOstar Plus Microplate Readear (BMG Labtech), and cytotoxicity assessed according to the % viable cells remaining. All measurements were made in quadruplicate.
(§7) The phototoxicity and inherent cytotoxicity (i.e. “dark toxicity”) of pyropheophorbide a analogues were assessed as previously using SKOV3 ovarian cancer cells. For comparative purposes, pyropheophorbide a analogues were compared against chlorin e4 disodium and Talaporfin sodium, a clinically approved photosensitizer used in the photodynamic treatment of lung cancers. Phototoxicity IC90 values and dark toxicity IC10 values were calculated using a log[inhibitor]-vs normalized response dose curve with variable slope, using the formula Y=100/(1+(IC90/X)^HillSlope (phototoxicity IC90)) or Y=100/(1+(IC10/X)^HillSlope (dark toxicity IC10)).

[3] = system: SKOV3 ovarian cancer cells; test: Inherent cytotoxicity (dark toxicity) in SKOV3 cells without light (AlamarBlue viability); settings: 24 h incubation, no light activation
Protocol: as §1, §2, §3, §4, §5, §6, §7

[4] = Homo sapiens, SK-OV-3, light or radiation study

Row | Structure (SMILES) | IC90 [1] | Dark toxicity μM (IC10) [2] | Dark toxicity μM (IC10) [3] | IC90 [1, 4] | Dark toxicity μM (IC10) ([2]; human, 24 h)
1 | C=Cc1c(C)c2cc3nc(c(C)c4[nH]c(cc5nc(cc1[nH]2)C(C)=C5CC)c(C)c4C(=O)O)[C@@H](CCC(=O)O)[C@@H]3C [Chlorin e4 disodium, chlorin e4 disodium, reference compound] | 21.3 µM | 40.23 µM |  |  | 
2 | CCOC(=O)N(CCC[P+](c1ccccc1)(c1ccccc1)c1ccccc1)Cc1c(C)c2cc3nc(c4c5[nH]c(cc6nc(cc1[nH]2)C(C)=C6CC)c(C)c5C(=O)C4)[C@@H](CCC(=O)OC)[C@@H]3C [Compound 5, pyropheophorbide a 9-(N-3-triphenylphosphoniumpropyl bromide ethylcarbamate)aminomethyl methyl ester] |  |  | 48.97 µM | 0.006 µM | 
3 | CCC1=C(C)c2cc3[nH]c(cc4nc(c5c6[nH]c(cc1n2)c(C)c6C(=O)C5)[C@@H](CCC(=O)OC)[C@@H]4C)c(C)c3CO [Comparative Compound 1, pyropheophorbide a 9-hydroxymethyl methyl ester, reference compound] |  |  |  | 0.458 µM | 15.500 µM
4 | C=Cc1c(C)c2cc3nc(c(CC(=O)N[C@@H](CC(=O)O)C(=O)O)c4[nH]c(cc5nc(cc1[nH]2)C(C)=C5CC)c(C)c4C(=O)O)[C@@H](CCC(=O)O)[C@@H]3C [Talaporfin sodium] |  |  |  |  | 11.10 µM
5 | CCC1=C(C)c2cc3[nH]c(cc4nc(c5c6[nH]c(cc1n2)c(C)c6C(=O)C5)[C@@H](CCC(=O)OC)[C@@H]4C)c(C)c3CN(C)C(=O)CCCC[P+](c1ccccc1)(c1ccccc1)c1ccccc1 [Compound 3, pyropheophorbide a 9-N-(methyl-5-triphenylphosphonium bromidepentanamide) methyl ester] |  |  |  | 0.012 µM | 24.00 µM
6 | CCC1=C(C)c2cc3[nH]c(cc4nc(c5c6[nH]c(cc1n2)c(C)c6C(=O)C5)[C@@H](CCC(=O)OC)[C@@H]4C)c(C)c3COC(=O)NCCC[P+](c1ccccc1)(c1ccccc1)c1ccccc1 [Compound 1, pyropheophorbide a methyl ester 9-(N-(3-triphenylphosphoniumpropyl)bromide)carbamate] |  |  | 3.088 µM | 0.038 µM | 
7 | CCC1=C(C)c2cc3[nH]c(cc4nc(c5c6[nH]c(cc1n2)c(C)c6C(=O)C5)[C@@H](CCC(=O)OC)[C@@H]4C)c(C)c3CNCCC[P+](c1ccccc1)(c1ccccc1)c1ccccc1 [Compound 4, pyropheophorbide a 9-(N-3-triphenylphosphoniumpropyl bromide)aminomethyl methyl ester] |  |  | 50.90 µM | 0.048 µM | 
8 | CCC1=C(C)c2cc3[nH]c(cc4nc(c5c6[nH]c(cc1n2)c(C)c6C(=O)C5)[C@@H](CCC(=O)OC)[C@@H]4C)c(C)c3COC(=O)CCCC[P+](c1ccccc1)(c1ccccc1)c1ccccc1 [Compound 2, pyropheophorbide a methyl ester 9-(oxopentyl)triphenylphosphonium bromide] |  |  |  | 0.002 µM | 0.415 µM

— patent publication US20260248828A1, “Pyropheophorbide Analogues for Therapy and Diagnosis” (RMW Cho Group Limited, priority 2023, published 2026)
